From patent US12433865B2, “Compositions comprising PGI2-receptor agonists and processes for the preparation thereof” (Arena Pharmaceuticals, Inc., priority 2018, dated 2025)

Test: Release (dissolution) profile of capsules, USP Apparatus 2 (paddle)
Assay type: physicochemical
Excerpt: USP Apparatus 2 (Paddle Apparatus) is described, for example, in the United States Pharmacopeial Convention, Feb. 1, 2012, Chapter <711> (“Dissolution”), incorporated by reference herein in its entirety. See http://www.usp.org/sites/default/files/usp_pdf/EN/USPNF/revisions/m99470-gc_711.pdf. The assembly from Apparatus 1 is used, except that a paddle formed from a blade and a shaft is used as the stirring element. The shaft is positioned so that its axis is not more than 2 mm from the vertical axis of the vessel at any point and rotates smoothly without significant wobble that could affect the results. The vertical center line of the blade passes through the axis of the shaft so that the bottom of the blade is flush with the bottom of the shaft. A distance of 25±2 mm between the bottom of the blade and the inside bottom of the vessel is maintained during the test. The metallic or suitably inert, rigid blade and shaft comprise a single entity. A suitable two-part detachable design may be used provided the assembly remains firmly engaged during the test. The paddle blade and shaft may be coated with a suitable coating so as to make them inert. The dosage unit is allowed to sink to the bottom of the vessel before rotation of the blade is started. A small, loose piece of nonreactive material, such as not more than a few turns of wire helix, may be attached to dosage units that would otherwise float. Other validated sinker devices may be used.
Unless otherwise specified, the release profiles for capsules were measured using USP Apparatus 2 (paddle).
All release profiles disclosed in Tables 3c-3p were measured with USP Apparatus 2 (paddle) at 50 rpm in 500 mL of aqueous sodium phosphate at a concentration of 0.05 M (pH=6.8). The values in a given table relate to capsules obtained from the same batch. Values shown represent mean values over a number of dissolution tests (“n” in each table) in each case.

mean value (n = 4) of % of Compound 1 released (Table 3p: size 4 capsule, 0.5 mg Compound 1, Poloxamer 188:food grade GMS 30:70, 735 min): 96.1%
mean value (n = 4) of % of Compound 1 released (Table 3q: size 4 capsule, 0.5 mg Compound 1, Poloxamer 188:food grade GMS 30:70, 30 min): 6.2%
mean value (n = 4) of % of Compound 1 released (Table 3q: size 4 capsule, 0.5 mg Compound 1, Poloxamer 188:food grade GMS 30:70, 60 min): 13.7%
mean value (n = 4) of % of Compound 1 released (Table 3q: size 4 capsule, 0.5 mg Compound 1, Poloxamer 188:food grade GMS 30:70, 120 min): 27.3%
mean value (n = 4) of % of Compound 1 released (Table 3q: size 4 capsule, 0.5 mg Compound 1, Poloxamer 188:food grade GMS 30:70, 180 min): 40.3%
mean value (n = 4) of % of Compound 1 released (Table 3q: size 4 capsule, 0.5 mg Compound 1, Poloxamer 188:food grade GMS 30:70, 240 min): 52.5%
mean value (n = 4) of % of Compound 1 released (Table 3q: size 4 capsule, 0.5 mg Compound 1, Poloxamer 188:food grade GMS 30:70, 360 min): 74.2%
mean value (n = 4) of % of Compound 1 released (Table 3q: size 4 capsule, 0.5 mg Compound 1, Poloxamer 188:food grade GMS 30:70, 480 min): 85.5%
mean value (n = 4) of % of Compound 1 released (Table 3q: size 4 capsule, 0.5 mg Compound 1, Poloxamer 188:food grade GMS 30:70, 600 min): 91.5%
mean value (n = 4) of % of Compound 1 released (Table 3q: size 4 capsule, 0.5 mg Compound 1, Poloxamer 188:food grade GMS 30:70, 720 min): 93.4%
mean value (n = 4) of % of Compound 1 released (Table 3q: size 4 capsule, 0.5 mg Compound 1, Poloxamer 188:food grade GMS 30:70, 735 min): 94.5%
mean value (n = 6) of % of Compound 1 released (Table 3r: size 4 capsule, 0.03 mg Compound 1, Poloxamer 188:food grade GMS 30:70, 60 min): 11%
mean value (n = 6) of % of Compound 1 released (Table 3r: size 4 capsule, 0.03 mg Compound 1, Poloxamer 188:food grade GMS 30:70, 120 min): 23%
mean value (n = 6) of % of Compound 1 released (Table 3r: size 4 capsule, 0.03 mg Compound 1, Poloxamer 188:food grade GMS 30:70, 180 min): 33%
mean value (n = 6) of % of Compound 1 released (Table 3r: size 4 capsule, 0.03 mg Compound 1, Poloxamer 188:food grade GMS 30:70, 240 min): 43%
mean value (n = 6) of % of Compound 1 released (Table 3r: size 4 capsule, 0.03 mg Compound 1, Poloxamer 188:food grade GMS 30:70, 360 min): 62%
mean value (n = 6) of % of Compound 1 released (Table 3r: size 4 capsule, 0.03 mg Compound 1, Poloxamer 188:food grade GMS 30:70, 480 min): 77%
mean value (n = 6) of % of Compound 1 released (Table 3r: size 4 capsule, 0.03 mg Compound 1, Poloxamer 188:food grade GMS 30:70, 600 min): 87%
mean value (n = 6) of % of Compound 1 released (Table 3r: size 4 capsule, 0.03 mg Compound 1, Poloxamer 188:food grade GMS 30:70, 720 min): 91%
mean value (n = 6) of % of Compound 1 released (Table 3r: size 4 capsule, 0.03 mg Compound 1, Poloxamer 188:food grade GMS 30:70, 840 min): 95%
mean value (n = 6) of % of Compound 1 released (Table 3s-1: Storage time = 0, size 4 capsule, 0.03 mg Compound 1, Poloxamer 188:food grade GMS 30:70, 60 min): 16.7%
mean value (n = 6) of % of Compound 1 released (Table 3s-1: Storage time = 0, size 4 capsule, 0.03 mg Compound 1, Poloxamer 188:food grade GMS 30:70, 120 min): 27.5%
mean value (n = 6) of % of Compound 1 released (Table 3s-1: Storage time = 0, size 4 capsule, 0.03 mg Compound 1, Poloxamer 188:food grade GMS 30:70, 180 min): 38.3%
mean value (n = 6) of % of Compound 1 released (Table 3s-1: Storage time = 0, size 4 capsule, 0.03 mg Compound 1, Poloxamer 188:food grade GMS 30:70, 240 min): 50.3%
mean value (n = 6) of % of Compound 1 released (Table 3s-1: Storage time = 0, size 4 capsule, 0.03 mg Compound 1, Poloxamer 188:food grade GMS 30:70, 360 min): 72.3%
mean value (n = 6) of % of Compound 1 released (Table 3s-1: Storage time = 0, size 4 capsule, 0.03 mg Compound 1, Poloxamer 188:food grade GMS 30:70, 480 min): 88.7%
mean value (n = 6) of % of Compound 1 released (Table 3s-1: Storage time = 0, size 4 capsule, 0.03 mg Compound 1, Poloxamer 188:food grade GMS 30:70, 600 min): 96.0%
mean value (n = 6) of % of Compound 1 released (Table 3s-2: Storage time = 2 weeks, size 4 capsule, 0.03 mg Compound 1, Poloxamer 188:food grade GMS 30:70, 60 min): 16.0%
mean value (n = 6) of % of Compound 1 released (Table 3s-2: Storage time = 2 weeks, size 4 capsule, 0.03 mg Compound 1, Poloxamer 188:food grade GMS 30:70, 120 min): 27.7%
mean value (n = 6) of % of Compound 1 released (Table 3s-2: Storage time = 2 weeks, size 4 capsule, 0.03 mg Compound 1, Poloxamer 188:food grade GMS 30:70, 180 min): 39.7%
mean value (n = 6) of % of Compound 1 released (Table 3s-2: Storage time = 2 weeks, size 4 capsule, 0.03 mg Compound 1, Poloxamer 188:food grade GMS 30:70, 240 min): 52.2%
mean value (n = 6) of % of Compound 1 released (Table 3s-2: Storage time = 2 weeks, size 4 capsule, 0.03 mg Compound 1, Poloxamer 188:food grade GMS 30:70, 360 min): 74.6%
mean value (n = 6) of % of Compound 1 released (Table 3s-2: Storage time = 2 weeks, size 4 capsule, 0.03 mg Compound 1, Poloxamer 188:food grade GMS 30:70, 480 min): 89.4%
mean value (n = 6) of % of Compound 1 released (Table 3s-2: Storage time = 2 weeks, size 4 capsule, 0.03 mg Compound 1, Poloxamer 188:food grade GMS 30:70, 600 min): 96.7%
mean value (n = 6) of % of Compound 1 released (Table 3h: size 4 capsule, 0.03 mg Compound 1, Poloxamer 188:food grade GMS 50:50, 60 min): 17.9%
mean value (n = 6) of % of Compound 1 released (Table 3h: size 4 capsule, 0.03 mg Compound 1, Poloxamer 188:food grade GMS 50:50, 120 min): 35.9%
mean value (n = 6) of % of Compound 1 released (Table 3h: size 4 capsule, 0.03 mg Compound 1, Poloxamer 188:food grade GMS 50:50, 180 min): 51.7%
mean value (n = 6) of % of Compound 1 released (Table 3h: size 4 capsule, 0.03 mg Compound 1, Poloxamer 188:food grade GMS 50:50, 240 min): 67.9%
mean value (n = 6) of % of Compound 1 released (Table 3h: size 4 capsule, 0.03 mg Compound 1, Poloxamer 188:food grade GMS 50:50, 300 min): 83.6%
mean value (n = 6) of % of Compound 1 released (Table 3h: size 4 capsule, 0.03 mg Compound 1, Poloxamer 188:food grade GMS 50:50, 360 min): 92.3%
mean value (n = 6) of % of Compound 1 released (Table 3h: size 4 capsule, 0.03 mg Compound 1, Poloxamer 188:food grade GMS 50:50, 480 min): 98.1%
mean value (n = 4) of % of Compound 1 released (Table 3d: size 4 capsule, 0.5 mg Compound 1, Poloxamer 188:food grade GMS 70:30, 30 min): 13.8%
mean value (n = 4) of % of Compound 1 released (Table 3d: size 4 capsule, 0.5 mg Compound 1, Poloxamer 188:food grade GMS 70:30, 60 min): 60.2%
mean value (n = 4) of % of Compound 1 released (Table 3d: size 4 capsule, 0.5 mg Compound 1, Poloxamer 188:food grade GMS 70:30, 120 min): 92.1%
release rate relative to immediate release composition (capsule, Gelucire 50/13:Kolliphor RH40 50:50 (FIG. 3)): substantially reduced
change of release rate after storage (capsule, Gelucire 50/13:Kolliphor RH40 75:25, storage at 40° C. and 75% RH over time (FIG. 4)): significantly increased
release rate, 90:10 ratio relative to 80:20 ratio (capsule, Gelucire 50/13:Kolliphor RH40 90:10 vs 80:20 (FIG. 3)): further reduced
effect of curing in stabilizing the release profile (research grade GMS (lower monoester content) instead of food grade GMS): not as effective
SMILES: O=C(O)COC[C@H]1CC[C@H](COC(=O)N(c2ccccc2)c2ccc(Cl)cc2)CC1 [Compound 1, 2-(((1r,4r)-4-(((4-chlorophenyl)(phenyl)carbamoyloxy)methyl)cyclohexyl)methoxy)acetic acid]
